Experimental data taken from US20090270496A1, “ANTIFUNGAL COMPOUNDS” (priority 2007, published 2009).

Assays:
[1] = during chronic treatment; cited from earlier work
[2] = cited from earlier work
Gi2 = Gi2 (Homo sapiens, UniProt P04899); settings: reconstituted Gi2, in vitro; read-out: EC50, activation of GTPase; cited from earlier work
HL-60 cells = settings: in the presence but not in the absence of extracellular Ca2+; cited from earlier work
[3] = tested on: cytoplasmic Ca2+ in S. cerevisiae cells (FY70 [pEVP11/AEQ]); assay: Aequorin luminescence, yeast cytoplasmic Ca2+; assay type: cell-based, Saccharomyces cerevisiae; settings: 50 μM added at t=30 sec, monitored […]; note: monitored 3.5 min
Method: Cells were transformed with pEVP11/AEQ, which constitutively expresses apoaequorin directed to the cytoplasm (Batiza et al., 1996) Transformed cells were grown to mid-exponential phase in SD-leu to maintain the plasmid. 1.5×10^7 cells were pelleted and resuspended in fresh SD-leu medium containing 5.9 μM coelenterazine for 1 hour to allow the cofactor to diffuse into cells and bind the apoaequorin. Cells were pelleted again and resuspended in fresh SD-leu (“SD” buffer) and 2.5×10^6 cells per well aliquoted to a microtiter plate for luminescence measurement. Luminescence was measured in an EG&G Berthold luminometer using Winglow monitoring and analysis software.
S. cerevisiae cells were prepared for aequorin assays as just described.

Gi2, sequence (P04899 2-355 limits assumed): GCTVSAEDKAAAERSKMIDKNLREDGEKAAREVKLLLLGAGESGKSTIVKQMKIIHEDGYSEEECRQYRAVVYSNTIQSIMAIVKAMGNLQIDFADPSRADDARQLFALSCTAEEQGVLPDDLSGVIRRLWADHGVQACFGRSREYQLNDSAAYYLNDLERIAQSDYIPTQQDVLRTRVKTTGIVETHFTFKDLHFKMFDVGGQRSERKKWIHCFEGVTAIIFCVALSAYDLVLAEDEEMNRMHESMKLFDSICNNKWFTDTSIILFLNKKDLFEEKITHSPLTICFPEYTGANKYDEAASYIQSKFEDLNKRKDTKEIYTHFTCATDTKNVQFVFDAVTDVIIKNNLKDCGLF

| Structure (SMILES) | plasma ratio of metabolite to parent compound [1] | ataxia, patients affected ([2]; especially during loading doses) | pulmonary fibrosis or pneumonitis fatal, cases ([2]; human, in vivo) | EC50 (Gi2) | cytosolic Ca2+ concentration (HL-60 cells) | increase in RLUs (cytoplasmic Ca2+) [3] | increase in RLUs (cytoplasmic Ca2+) ([3]; listed as amiodarone) |
| --- | --- | --- | --- | --- | --- | --- | --- |
| CCCCc1oc2ccccc2c1C(=O)c1cc(I)c(OCCNCC)c(I)c1 [desethylamiodarone] | approximately one | – | – | – | – | – | – |
| CCCCc1oc2ccccc2c1C(=O)c1cc(I)c(OCCN(CC)CC)c(I)c1 [Amiodarone, amiodarone] | – | 20-40% | about 10% | 50 µM | increased | immediate and very large increase | immediate and huge increase |
